Source: patent publication US7462478B2, “Polynucleotide encoding 2-hydroxyisoflavanone dehydratase and application of the same” (Nihon University, priority 2003, dated 2008)
Where “and” joins values, the source holds several entries; their conditions need not be identical. Equal values may be shown once.

Legend:
[1] = test system: Carboxylesterase from pig liver; test: Carboxylesterase activity of pig liver carboxylesterase (positive control); assay type: biochemical; details: rate of p-nitrophenol production, 30° C., absorbance at 400 nm
Protocol: (§1) The specific carboxylesterase activities of recombinant licorice HIDM and soybean HIDH proteins were calculated from the generation rate of p-nitrophenol measured at 30° C. by an absorbance at 400 nm in 1.5 ml of a 50-mM Tris-HCl buffer containing 150 mM of NaCl and 750 nmol of p-nitrophenyl butyrate (Heymann 1981). Commercially-available pig liver carboxylesterase (Sigma Corporation) was used as a positive control. Thermally-denatured (100° C., 10 minutes) licorice HIDM, soybean HIDH, and pig liver carboxylesterase protein were analyzed as negative controls, respectively.

[2] = target: T1, recombinant licorice HIDM (Glycyrrhiza echinata, UniProt Q5NUF4); test: Carboxylesterase activity of recombinant licorice HIDM; assay type: biochemical
T1 construct: The NdeI-BamHI fragment of the PCR product from licorice HIDM was cloned into the corresponding sites of pET28a; made in house; host or cells: E. coli BL21 (DE3), vector pET28a, purified with HisTrap Kit
T1 sequence (Q5NUF4 1-328): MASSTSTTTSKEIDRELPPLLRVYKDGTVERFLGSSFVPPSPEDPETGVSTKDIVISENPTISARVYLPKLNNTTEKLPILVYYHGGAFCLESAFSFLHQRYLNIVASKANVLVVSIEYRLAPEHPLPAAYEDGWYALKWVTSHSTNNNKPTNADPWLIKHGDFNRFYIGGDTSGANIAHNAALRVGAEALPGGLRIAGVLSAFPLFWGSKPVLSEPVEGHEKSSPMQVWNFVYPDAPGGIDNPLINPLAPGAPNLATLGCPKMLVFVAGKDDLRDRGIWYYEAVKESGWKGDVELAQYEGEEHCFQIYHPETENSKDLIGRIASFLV
Protocol: as §1

recombinant soybean HIDH = target: T2, recombinant soybean HIDH (Glycine max, UniProt Q5NUF3); test: Carboxylesterase activity of recombinant soybean HIDH; assay type: biochemical
T2 construct: the NdeI-BamHI fragment of soybean cDNA (HIDH) was also subcloned into the corresponding sites of the pET28a; made in house; host or cells: E. coli BL21 (DE3), vector pET28a, purified with HisTrap Kit
T2 sequence (Q5NUF3 1-319): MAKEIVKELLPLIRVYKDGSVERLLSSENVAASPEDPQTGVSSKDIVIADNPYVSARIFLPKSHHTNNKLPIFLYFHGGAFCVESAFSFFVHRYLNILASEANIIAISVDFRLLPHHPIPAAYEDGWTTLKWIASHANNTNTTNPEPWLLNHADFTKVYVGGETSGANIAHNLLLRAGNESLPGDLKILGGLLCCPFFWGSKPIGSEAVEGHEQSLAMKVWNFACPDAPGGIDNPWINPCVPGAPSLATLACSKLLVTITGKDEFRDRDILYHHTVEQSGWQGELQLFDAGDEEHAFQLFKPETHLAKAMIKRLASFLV
Protocol: as §1

[3] = target: T3, recombinant licorice HIDM (2-hydroxyisoflavanone dehydratase) (Glycyrrhiza echinata, UniProt Q5NUF4); test: 2-hydroxyisoflavanone dehydratase assay, recombinant licorice HIDM; assay type: biochemical; details: for Specific activity, Licorice Recombinant protein: purified recombinant protein, rate of isoflavone production, mean ± SD of three experiments
T3 construct: The NdeI-BamHI fragment of the PCR product from licorice HIDM was cloned into the corresponding sites of pET28a; made in house; host or cells: E. coli BL21 (DE3), vector pET28a, purified with HisTrap Kit
T3 sequence (Q5NUF4 1-328): T1 sequence (Q5NUF4 1-328)
Protocol: (§2) An enzyme preparation was added to 2,7,4′-trihydroxyisoflavanone, 2,7-dihydroxy-4′-methoxyisoflavanone, or 2,5,7,4′-tetrahydroxyisoflavanone (5 nmol each) in 2-methoxyethanol so as to be in a total volume of 100 μl, and then the whole was incubated at 30° C. for 10 minutes.
The assay of 2,5,7-trihydroxy-4′-methoxyisoflavanone dehyderatase (biochanin A synthetase) was carried out as follows. 2,5,7,4′-tetrahydroxyisoflavanone (10 nmol) dissolved in 2-methoxyethanol was incubated together with licorice HI4′OMT (1 μg) and 1 μmol of S-adenosyl-L-methionine (SAM) at 30° C. for 15 minutes.
(§3) A concentrated ethyl acetate extract was incubated with recombinant licorice HIDM (1 μg) at 30° C. for 10 minutes. An ethyl acetate extract from the mixture was analyzed by high-performance liquid chromatography (HPLC). The HPLC for both daidzein and formononetin analysis was carried out using a Capcell pak C18 MG column (4.6×150 mm; Shiseido Co., Ltd.) at 40° C. (flow volume=0.8 ml/min) (Non-Patent Document 12) with a linear gradient elution for 40 minutes from 35% to 55% methanol in 3% aqueous acetic acid. 5-Hydroxyisoflavones were analyzed using a Capcell pak C18MG column (4.6×150 mm; Shiseido Co., Ltd.) with a 50% methanol aqueous solution (for genistein) or a 55% methanol aqueous solution (for biochanin A) at 40° C. (flow rate=0.8 ml/min).
(§4) The purified recombinant protein (approximately 10 ng of protein) and cell-free extracts of licorice and soybean (approximately 10 μg of protein) were used to determine their specific activity. The concentration of isoflavone was calculated from the HPL peak area of the standard sample of each of daidzein, formononetin, and genistein.
(§5) The NdeI-BamHI fragment of the PCR product from licorice HIDM was cloned into the corresponding sites of pET28a (Novagen Ltd.). In addition, the NdeI-BamHI fragment of soybean cDNA (HIDH) was also subcloned into the corresponding sites of the pET28a. The expression and purification of recombinant 2-hydroxyisoflavanone dehydratases were carried out by the following procedures (Non-Patent Document 12). The E. coli BL21 (DE3) cells transformed with the vector containing HIDM or HIDH were incubated up to OD600=0.4 in a LB/ampicillin medium supplemented with 20 ml of 50 μg/ml kanamycin or ampicillin at 30° C. IPTG was added to the culture so as to be a final concentration of 1.0 mM and the whole was incubated at 30° C. for six hours. The licorice HIDM and soybean HIDH were purified from the crude extracts of HIDM and HIDH-expression E. coli using HisTrap Kit (Amersham Biosciences Corporation), respectively.

[4] = test system: 2-hydroxyisoflavanone dehydratase in cell-free extract of soybean seedling; test: 2-hydroxyisoflavanone dehydratase assay, soybean crude extract; assay type: biochemical, Glycine max; details: for Specific activity, Soybean Crude extract: rate of isoflavone production, 30° C., 10 minutes, mean ± SD of three experiments
Protocol: (§6) All procedures were carried out at 4° C. Licorice cells (10 g) after elicitor treatment (for 24 hours) or 1-week old soybean raised from seeds (10 g) were homogenized in a mortar with 10 ml of a 100-mM potassium phosphate buffer (pH 7.5) containing 10% sucrose and 14 mM of 2-mercaptoethanol and with sea sand (2.5 g). The resulting homogenate was filtered through gauze and then centrifuged at 10,000×g for 10 minutes. Supernatant was mixed with 2.5 g of Dowex 1-X2 (equilibrated with a 100-mM potassium phosphate buffer), followed by standing for 20 minutes. The solution obtained from the filtration was fractionated with ammonium sulfate and a 30-80% saturated fraction was then demineralized through a Sephadex G-25 column and dissolved in a 100-mM potassium phosphate buffer (pH 7.5) containing 10% sucrose and 14-mM 2-mercaptoethanol, followed by being used in the assay (approximately 600 μg/ml of protein).
as §2, §3, §4

[5] = target: T4, 2-hydroxyisoflavanone dehydratase in cell-free extract of licorice cells (strain AK-1) (Glycyrrhiza echinata, UniProt Q5NUF4); test: 2-hydroxyisoflavanone dehydratase assay, licorice crude extract; assay type: biochemical; details: for Specific activity, Licorice Crude extract: rate of isoflavone production, 30° C., 10 minutes, mean ± SD of three experiments
T4 construct: Licorice cells (10 g) after elicitor treatment (for 24 hours) or 1-week old soybean raised from seeds (10 g) were homogenized; endogenous in cells; host or cells: elicitor-treated licorice cultured cells (strain AK-1); 30-80% ammonium sulfate fraction of the cell-free extract
T4 sequence (Q5NUF4 1-328): T1 sequence (Q5NUF4 1-328)
Protocol: as §6, §2
(§7) A concentrated ethyl acetate extract was incubated with recombinant licorice HIDM (1 μg) at 30° C. for 10 minutes. An ethyl acetate extract from the mixture was analyzed by high-performance liquid chromatography (HPLC). The HPLC for both daidzein and formononetin analysis was carried out using a Capcell pak C18 MG column (4.6×150 mm; Shiseido Co., Ltd.) at 40° C. […] 5-Hydroxyisoflavones were analyzed using a Capcell pak C18MG column (4.6×150 mm; Shiseido Co., Ltd.) with a 50% methanol aqueous solution (for genistein) or a 55% methanol aqueous solution (for biochanin A) at 40° C. […]
as §4

[6] = test system: 2-hydroxyisoflavanone dehydratase of P. lobata; details: Hakamatsuka et al., 1998; cited from earlier work
[7] = target: T5, recombinant soybean HIDH (2-hydroxyisoflavanone dehydratase) (Glycine max, UniProt Q5NUF3); test: 2-hydroxyisoflavanone dehydratase assay, recombinant soybean HIDH; assay type: biochemical; details: for Specific activity, Soybean Recombinant protein: purified recombinant protein, rate of isoflavone production, mean ± SD of three experiments
T5 construct: the NdeI-BamHI fragment of soybean cDNA (HIDH) was also subcloned into the corresponding sites of the pET28a; made in house; host or cells: E. coli BL21 (DE3), vector pET28a, purified with HisTrap Kit
T5 sequence (Q5NUF3 1-319): T2 sequence (Q5NUF3 1-319)
Protocol: as §2, §3, §4, §5

[8] = test system: Carboxylesterase from pig liver; test: 2-hydroxyisoflavanone dehydratase assay, carboxylesterase from pig liver; assay type: biochemical
Protocol: as §2, §7
The specific carboxylesterase activities of recombinant licorice HIDM and soybean HIDH proteins were calculated from the generation rate of p-nitrophenol measured at 30° C. by an absorbance at 400 nm in 1.5 ml of a 50-mM Tris-HCl buffer containing 150 mM of NaCl and 750 nmol of p-nitrophenyl butyrate (Heymann 1981). […] Thermally-denatured (100° C., 10 minutes) licorice HIDM, soybean HIDH, and pig liver carboxylesterase protein were analyzed as negative controls, respectively.

[9] = rate of p-nitrophenol production, 30° C., absorbance at 400 nm

Compound: CCCC(=O)Oc1ccc([N+](=O)[O-])cc1 [p-nitrophenyl butyrate]
- Specific carboxylesterase activity, Carboxylesterase from pig liver [1]: 425 ± 7 (f) nkatal/mg
- Carboxylesterase activity of recombinant licorice dehydratase [2]: weak activity
- Specific carboxylesterase activity, Licorice Recombinant protein [2, 9]: 0.32 ± 0.07 (f) nkatal/mg
- Carboxylesterase activity of recombinant soybean dehydratase (recombinant soybean HIDH): weak activity
- Carboxylesterase activity of soybean HIDH as fraction of the pig liver enzyme (recombinant soybean HIDH): approximately 1/50
- Specific carboxylesterase activity, Soybean Recombinant protein (recombinant soybean HIDH; [9]): 7.20 ± 0.4 (f) nkatal/mg

Compound: COc1ccc(C2C(=O)c3c(O)cc(O)cc3OC2O)cc1 (stereo not drawn) [2,5,7-trihydroxy-4′-methoxyisoflavanone]
- Product detected by HPLC after incubation with licorice HIDM ([3]; substrate made with HI4′OMT and SAM, HIDM 1 μg, 30° C., 10 minutes): biochanin A was detected

Compound: O=C1c2ccc(O)cc2OC(O)C1c1ccc(O)cc1 (stereo not drawn) [2,7,4′-trihydroxyisoflavanone]
- Specific activity, Soybean Crude extract [4]: 197.3 ± 15 pkatal/mg
- Activity (daidzein production), times as small as the production of formononetin ([5]; licorice extract, versus 2,7-dihydroxy-4′-methoxyisoflavanone): approximately 160 times
- Specific activity, Licorice Crude extract [5]: 0.8 ± 0.03 pkatal/mg
- Specific activity of dehydratase of P. lobata [6]: 56.8 mkatal/kg protein
- Specific activity, Soybean Recombinant protein [7]: 43.6 nkatal/mg and 43.6 ± 4 nkatal/mg
- Specific activity, Licorice Recombinant protein [3]: 0.70 ± 0.08 nkatal/mg
- Dehydration by carboxylesterase from pig liver [8]: did not dehydrate
- Specific activity, Carboxylesterase from pig liver (dehydration) ([8]; rate of isoflavone production): 0 nkatal/mg

Compound: COc1ccc(C2C(=O)c3ccc(O)cc3OC2O)cc1 (stereo not drawn) [2,7-dihydroxy-4′-methoxyisoflavanone]
- Specific activity, Soybean Crude extract [4]: 97.4 ± 10 pkatal/mg
- Specific activity, Licorice Crude extract [5]: 123.0 ± 8 pkatal/mg
- Specific activity, Soybean Recombinant protein [7]: 0.90 ± 0.1 nkatal/mg
- Specific activity, Licorice Recombinant protein [3]: 52.1 ± 1.5 nkatal/mg
- Specific activity of licorice HIDM, times as high as to 2,7,4′-trihydroxyisoflavanone ([3]; recombinant licorice HIDM): 74 times

Compound: O=C1c2c(O)cc(O)cc2OC(O)C1c1ccc(O)cc1 (stereo not drawn) [2,5,7,4′-tetrahydroxyisoflavanone]
- Specific activity, Soybean Crude extract [4]: 19.6 ± 3 pkatal/mg
- Production of genistein, level with respect to the production of daidzein ([4]; soybean extract): approximately 1/10
- Specific activity, Soybean Recombinant protein [7]: 3.55 ± 0.6 nkatal/mg
- Product formation by soybean HIDH (HPLC) ([7]; recombinant soybean HIDH): catalyzed the production of genisein
